Test results published in patent US11583542B2, “Compositions of bile acids and phenylbutyrate compounds” (Amylyx Pharmaceuticals Inc., priority 2019, dated 2023).
Values belong to the compound of their own block, whether it stands above or below them.

Columns and labels:
Assay type in all cases: physicochemical
[1] = Bulk density, tapped density, Hausner ratio and Carr's index; conditions: powder; calculated from bulk and tapped density
Experimental: Bulk density was calculated for each API and blend by gently pouring powder into a 25 mL graduated cylinder. Tapped density was calculated using a tapped volumeter to compact each powder using 100-tap increments until volume change was <5%. Hausner ratio and Carr's index were then calculated using bulk density and tapped density. Formulation C was selected based on flow characteristics. Carr's index, in addition to being a measure of compressibility, may also be used to determine the flow properties of a material. […] Acceptable flow property (as determined by the packaging equipment used) was a minimum of a Carr's index of under 25, with a Carr's index of below 20 being preferable.
Each API was blended and roller compacted with excipients separately to determine if the proximity of the dual APIs in the blend or granules was responsible for agglomeration. The resulting granules were then recombined and blended before filling test sachets. Bulk and tapped densities of each blend were measured prior to roller compaction. For this experiment, all silica were used at 1% W/W. Aerosil 200 was used as a negative control while Syloid 244FP and Syloid 63FP were used to remove moisture from the APIs to determine if APIs would agglomerate with reduced local levels of water. […]

[2] = Dynamic Vapor Sorption (DVS) testing
Excerpt: Samples of NaPB, TURSO, and modified formulation C1 blend were subjected to DVS testing to determine the magnitude of weight gain due to humidity.

[3] = Forced degradation studies (thermal, thermal-humidity, light, oxidation, acid, base); conditions: for degradation of API: API alone
Excerpt: Each API and the final formulation (referred to as “AMX powder in sachet”) containing both APIs were also subjected to forced degradation studies. The study included stressing samples of PB (sodium phenylbutyrate) API, TURSO API, placebo, and AMX Powder in Sachet under thermal, thermal-humidity, light, oxidation, acid, or base conditions (Table 49).

[4] = Loss on Drying (LOD) testing; conditions: excipients
Experimental: After storage in sealed bottles for about one week, slight agglomeration of blends was observed.
LOD testing was performed on recovered agglomerated blend (PD2016-015-33B) after ˜2 hours of drying at 50° C. to determine the degree of moisture uptake. Results were compared against a non-agglomerated blend that had been stored in a sealed bottle (PD2016-015-29A).

[5] = Base 3 Days (1.0N NaOH, 50° C.)
[6] = Base 7 Days (1.0N NaOH, 50° C.)
[7] = Thermal-Humidity (85° C. + 1.0 mL water, 10 days)

Carr's index [1]: 39.2
DVS change in mass ([2]; above 45% RH): massive fluctuations in mass
Fluctuations in mass ([2]; moisture uptake): up to 50%
degradation of API ([3]; any of the forced degradation conditions studied): did not degrade
% PB / % (PB) Potency ([3]; Acid 3 Days (1.0N HCl, 50° C.)): 99.1%
% PB remaining ([3]; Acid 3 Days (1.0N HCl, 50° C.)): 99.9%
% RMBD (Relative Mass Balance Deficit), PB ([3]; Acid 3 Days (1.0N HCl, 50° C.)): 99.0%
% Total RS / % Total PB Impurity ([3]; Acid 3 Days (1.0N HCl, 50° C.)): 1.18%
Mass Balance / PB Sum ([3]; Acid 3 Days (1.0N HCl, 50° C.)): 100.28
% PB / % (PB) Potency ([3]; Acid 7 Days (1.0N HCl, 50° C.)): 99.7%
% PB remaining ([3]; Acid 7 Days (1.0N HCl, 50° C.)): 100.5%
% RMBD (Relative Mass Balance Deficit), PB ([3]; Acid 7 Days (1.0N HCl, 50° C.)): 99.6%
% Total RS / % Total PB Impurity ([3]; Acid 7 Days (1.0N HCl, 50° C.)): 1.14%
Mass Balance / PB Sum ([3]; Acid 7 Days (1.0N HCl, 50° C.)): 100.84
% PB remaining [3, 5]: 99.7%
% RMBD (Relative Mass Balance Deficit), PB [3, 5]: 98.8%
% Total RS / % Total PB Impurity [3, 5]: 1.11%
Mass Balance / PB Sum [3, 5]: 100.01
% PB / % (PB) Potency [3, 6]: 99.8%
% PB remaining [3, 6]: 100.6%
% RMBD (Relative Mass Balance Deficit), PB [3, 6]: 99.6%
% Total RS / % Total PB Impurity [3, 6]: 1.10%
Mass Balance / PB Sum [3, 6]: 100.90
% PB / % (PB) Potency ([3]; Control): 99.2%
% Total RS / % Total PB Impurity ([3]; Control): 2.07%
Mass Balance / PB Sum ([3]; Control): 101.27
% PB / % (PB) Potency ([3]; Light (1 × ICH condition)): 98.3%
% PB remaining ([3]; Light (1 × ICH condition)): 99.3%
% RMBD (Relative Mass Balance Deficit), PB ([3]; Light (1 × ICH condition)): 99.1%
% Total RS / % Total PB Impurity ([3]; Light (1 × ICH condition)): 0.74%
Mass Balance / PB Sum ([3]; Light (1 × ICH condition)): 99.04
% PB / % (PB) Potency ([3]; Light Control): 99.0%
% Total RS / % Total PB Impurity ([3]; Light Control): 0.96%
Mass Balance / PB Sum ([3]; Light Control): 99.96
% PB remaining ([3]; Oxidation (3% H2O2)): 99.4%
% RMBD (Relative Mass Balance Deficit), PB ([3]; Oxidation (3% H2O2)): 100.5%
% Total RS / % Total PB Impurity ([3]; Oxidation (3% H2O2)): 3.13%
Mass Balance / PB Sum ([3]; Oxidation (3% H2O2)): 101.73
% PB / % (PB) Potency ([3]; Thermal (85° C., 10 days)): 98.9%
% PB remaining ([3]; Thermal (85° C., 10 days)): 99.7%
% RMBD (Relative Mass Balance Deficit), PB ([3]; Thermal (85° C., 10 days)): 101.5%
% Total RS / % Total PB Impurity ([3]; Thermal (85° C., 10 days)): 3.93%
Mass Balance / PB Sum ([3]; Thermal (85° C., 10 days)): 102.83
% PB / % (PB) Potency [3, 7]: 99.3%
% PB remaining [3, 7]: 100.1%
% RMBD (Relative Mass Balance Deficit), PB [3, 7]: 99.2%
% Total RS / % Total PB Impurity [3, 7]: 1.16%
Mass Balance / PB Sum [3, 7]: 100.48
Compound: O=C(O)CCCc1ccccc1 [NaPB, sodium phenylbutyrate]

% RMBD, TUDCA ([3]; Acid 3 Days (1.0N HCl, 50° C.)): 99.8%
% TUDCA / % (TUDCA) Potency ([3]; Acid 3 Days (1.0N HCl, 50° C.)): 100.0%
% TUDCA remaining ([3]; Acid 3 Days (1.0N HCl, 50° C.)): 99.8%
% Total RS / % Total TUDCA Impurity ([3]; Acid 3 Days (1.0N HCl, 50° C.)): 0.23%
Sum / TUDCA Sum ([3]; Acid 3 Days (1.0N HCl, 50° C.)): 100.23
% RMBD, TUDCA ([3]; Acid 7 Days (1.0N HCl, 50° C.)): 97.0%
% TUDCA / % (TUDCA) Potency ([3]; Acid 7 Days (1.0N HCl, 50° C.)): 97.2%
% TUDCA remaining ([3]; Acid 7 Days (1.0N HCl, 50° C.)): 97.0%
% Total RS / % Total TUDCA Impurity ([3]; Acid 7 Days (1.0N HCl, 50° C.)): 0.20%
Sum / TUDCA Sum ([3]; Acid 7 Days (1.0N HCl, 50° C.)): 97.40
% Degradation Observed / Conclusion ([3]; Acid: 10 mL of 1.0N HCl per sample for 3 days at 50° C.): No significant
% RMBD, TUDCA [3, 5]: 94.9%
% TUDCA / % (TUDCA) Potency [3, 5]: 95.1%
% TUDCA remaining [3, 5]: 94.9%
% Total RS / % Total TUDCA Impurity [3, 5]: 0.22%
Sum / TUDCA Sum [3, 5]: 95.32
% RMBD, TUDCA [3, 6]: 82.6%
% TUDCA / % (TUDCA) Potency [3, 6]: 82.8%
% TUDCA remaining [3, 6]: 82.6%
% Total RS / % Total TUDCA Impurity [3, 6]: 0.18%
Sum / TUDCA Sum [3, 6]: 82.98
% TUDCA / % (TUDCA) Potency ([3]; Control): 100.2%
% Total RS / % Total TUDCA Impurity ([3]; Control): 0.22%
Sum / TUDCA Sum ([3]; Control): 100.42.
% RMBD, TUDCA ([3]; Light (1 × ICH condition)): 103.2%
% TUDCA / % (TUDCA) Potency ([3]; Light (1 × ICH condition)): 99.5%
% TUDCA remaining ([3]; Light (1 × ICH condition)): 103.2%
% Total RS / % Total TUDCA Impurity ([3]; Light (1 × ICH condition)): 0.24%
Sum / TUDCA Sum ([3]; Light (1 × ICH condition)): 99.74
% TUDCA / % (TUDCA) Potency ([3]; Light Control): 96.4%
% Total RS / % Total TUDCA Impurity ([3]; Light Control): 0.22%
Sum / TUDCA Sum ([3]; Light Control): 96.62
% Degradation Observed / Conclusion ([3]; Light: 1 × ICH condition (White light NLT 1.2 million lux hours and UV light NLT 200 W hours/m^2)): No significant
% RMBD, TUDCA ([3]; Oxidation (3% H2O2)): 98.8%
% TUDCA / % (TUDCA) Potency ([3]; Oxidation (3% H2O2)): 97.1%
% TUDCA remaining ([3]; Oxidation (3% H2O2)): 93.9%
% Total RS / % Total TUDCA Impurity ([3]; Oxidation (3% H2O2)): 1.36%
Sum / TUDCA Sum ([3]; Oxidation (3% H2O2)): 98.46
% Degradation Observed / Conclusion ([3]; Oxidation: 10 mL of 3% H2O2 per sample): ~3%
% RMBD, TUDCA ([3]; Thermal (85° C., 10 days)): 100.5%
% TUDCA / % (TUDCA) Potency ([3]; Thermal (85° C., 10 days)): 100.6%
% TUDCA remaining ([3]; Thermal (85° C., 10 days)): 100.4%
% Total RS / % Total TUDCA Impurity ([3]; Thermal (85° C., 10 days)): 0.28%
Sum / TUDCA Sum ([3]; Thermal (85° C., 10 days)): 100.88
% RMBD, TUDCA [3, 7]: 0.0%
% TUDCA remaining [3, 7]: 0%
Sum / TUDCA Sum [3, 7]: 0.00
% Degradation Observed / Conclusion ([3]; Thermal-Humidity: 85° C. + 1.0 mL water per sample for 10 days): Full degradation/
% Degradation Observed / Conclusion ([3]; Thermal: 85° C. for 10 days): No significant
Compound: C[C@H](CCC(=O)NCCS(=O)(=O)O)[C@H]1CC[C@H]2[C@@H]3[C@@H](O)C[C@@H]4C[C@H](O)CC[C@]4(C)[C@H]3CC[C@]12C [TUDCA API]

Carr's index [1]: 24.2
degradation of API ([3]; Thermal-Humidity condition): no TURSO peak was detected
degradation of API ([3]; acidic condition, by Day 7): degraded slightly
degradation of API ([3]; base condition, by Day 3): degraded slightly
degradation of API ([3]; base condition, by Day 7): ~17%
degradation of API ([3]; light condition): did not degrade
degradation of API ([3]; oxidation condition, by Day 3): degraded slightly
degradation of API ([3]; thermal condition): did not degrade
% Degradation Observed / Conclusion ([3]; Acid: 10 mL of 1.0N HCl per sample for 3 days at 50° C., listed as TURSO API): None
% Degradation Observed / Conclusion ([3]; Acid: 10 mL of 1.0N HCl per sample for 7 days at 50° C.): ~3%
% Degradation Observed / Conclusion ([3]; Base: 10 mL of 1.0N NaOH per sample for 3 days at 50° C.): ~5%
% Degradation Observed / Conclusion ([3]; Base: 10 mL of 1.0N NaOH per sample for 7 days at 50° C.): ~17%
% Degradation Observed / Conclusion ([3]; Light: 1 × ICH condition (White light NLT 1.2 million lux hours and UV light NLT 200 W hours/m^2), listed as TURSO API): None
% Degradation Observed / Conclusion ([3]; Oxidation: 10 mL of 3% H2O2 per sample, listed as TURSO API): 3%
% Degradation Observed / Conclusion ([3]; Thermal-Humidity: 85° C. + 1.0 mL water per sample for 10 days, listed as TURSO API): 100%
% Degradation Observed / Conclusion ([3]; Thermal: 85° C. for 10 days, listed as TURSO API): None
Compound: C[C@H](CCC(=O)NCCS(=O)(=O)O)[C@H]1CC[C@H]2[C@@H]3[C@@H](O)C[C@@H]4C[C@H](O)CC[C@]4(C)[C@H]3CC[C@]12C [TURSO, tauroursodeoxycholic acid]

water uptake by loss-on-drying (LOD) testing [4]: neither exhibited massive water uptake
Compound: OC[C@@H](O)[C@@H](O)[C@H](O)[C@@H](O)CO [sorbitol]
